Measurements as given in patent US20160326153A1, “N-SUBSTITUTED IMINO HETEROCYCLIC COMPOUNDS” (BASF SE, priority 2013, published 2016).

What was measured:
Type in all cases: in vivo
Megoura viciae = experiment: Vetch aphid (Megoura viciae) through contact or systemic means, broad bean leaf disks; details: foliar, 120 h, read-out: mortality in comparison with untreated controls
Protocol: B.10 Vetch Aphid (Megoura viciae)
For evaluating control of vetch aphid (Megoura viciae) through contact or systemic means the test unit consisted of 24-well-microtiter plates containing broad bean leaf disks.
The compounds were formulated using a solution containing 75% v/v water and 25% v/v DMSO. Different concentrations of formulated compounds were sprayed onto the leaf disks at 2.5 μl, using a custom built micro atomizer, at two replications.
After application, the leaf disks were air-dried and 5-8 adult aphids placed on the leaf disks inside the microtiter plate wells. The aphids were then allowed to suck on the treated leaf disks and incubated at about 23±1° C. and about 50±5% relative humidity for 5 days. Aphid mortality and fecundity was then visually assessed.

Myzus persicae = experiment: Green peach aphid (Myzus persicae) through systemic means, artificial diet under membrane in microtiter plates; details: 72 h, read-out: mortality in comparison with untreated controls
Description: For evaluating control of green peach aphid (Myzus persicae) through systemic means the test unit consisted of 96-well-microtiter plates containing liquid artificial diet under an artificial membrane.
The compounds were formulated using a solution containing 75% v/v water and 25% v/v DMSO. Different concentrations of formulated compounds were pipetted into the aphid diet, using a custom built pipetter, at two replications.
After application, 5-8 adult aphids were placed on the artificial membrane inside the microtiter plate wells. The aphids were then allowed to suck on the treated aphid diet and incubated at about 23±1° C. and about 50±5% relative humidity for 3 days. Aphid mortality and fecundity was then visually assessed.

Aedes aegypti = experiment: whole plant or invertebrate; details: 48 h, larval mortality after 2 days, read-out: mortality in comparison with untreated controls
Protocol: B.11 Yellow Fever Mosquito (Aedes aegypti)
For evaluating control of yellow fever mosquito (Aedes aegypti) the test unit consisted of 96-well-microtiter plates containing 200 μl of tap water per well and 5-15 freshly hatched A. aegypti larvae.
The active compounds were formulated using a solution containing 75% (v/v) water and 25% (v/v) DMSO. Different concentrations of formulated compounds or mixtures were sprayed onto the insect diet at 2.5 μl, using a custom built micro atomizer, at two replications.
After application, microtiter plates were incubated at 28+1° C., 80+5% RH for 2 days. Larval mortality was then visually assessed.

Nilaparvata lugens = experiment: Rice brown plant hopper (Nilaparvata lugens) on sprayed rice seedlings; details: 100 ppm; after 72 hours
Protocol: B.9 Rice Brown Plant Hopper (Nilaparvata lugens)
(§1) Rice seedlings were cleaned and washed 24 hours before spraying. The active compounds were formulated in 1:1 acetone:water (vol:vol) and 0.01% vol/vol surfactant (Kinetic HV) was added. Potted rice seedlings were sprayed with 5 ml test solution, air dried, covered with Mylar cages and inoculated with 10 adults. Treated rice plants were kept at about 28-29° C. and relative humidity of about 50-60%. Percent mortality was recorded after 72 hours.

Aphis craccivora = experiment: Cowpea aphid (Aphis craccivora) on sprayed cowpea plants; details: 72 h, read-out: mortality in comparison with untreated controls
Protocol: B.3 Cowpea Aphid (Aphis craccivora)
The active compound is dissolved at the desired concentration in a mixture of 1:1 (vol:vol) distilled water:acetone. Surfactant (Kinetic HV) is added at a rate of 0.01% (vol/vol). The test solution is prepared at the day of use.
Potted cowpea plants were colonized with approximately 50-100 aphids of various stages by manually transferring a leaf tissue cut from infested plant 24 hours before application. Plants were sprayed after the pest population has been recorded. Treated plants are maintained on light carts at about 28° C. Percent mortality was assessed after 72 hours.

Ceratitis capitata = experiment: Mediterranean fruitfly (Ceratitis capitata) control, microtiter plates with insect diet and eggs; details: 120 h, read-out: mortality in comparison with untreated controls
Protocol: B.5 Mediterranean Fruitfly (Ceratitis capitata)
For evaluating control of Mediterranean fruitfly (Ceratitis capitata) the test unit consisted of microtiter plates containing an insect diet and 50-80 C. capitata eggs.
The compounds were formulated using a solution containing 75% v/v water and 25% v/v DMSO. Different concentrations of formulated compounds were sprayed onto the insect diet at 5 μl, using a custom built micro atomizer, at two replications.
After application, microtiter plates were incubated at about 28±1° C. and about 80±5% relative humidity for 5 days. Egg and larval mortality was then visually assessed.

Nephotettix virescens = experiment: Rice green leafhopper (Nephotettix virescens) on sprayed rice seedlings; details: 72 h, read-out: mortality in comparison with untreated controls
Protocol: B.7 Rice Green Leafhopper (Nephotettix virescens)
as §1, with “acetone:water (vol:vol),” for “acetone:water (vol:vol)”, “with 5-6” for “with 5”, “Mylar cages” for “Mylar”

CO/N=C/C(=O)ON=c1ccccn1Cc1cnc(Cl)s1 (mixture of isomers) [IA.1-4, [(E/Z)-[1-[(2-chlorothiazol-5-yl)methyl]-2-pyridylidene]amino] (2E/Z)-2-methoxyimino-acetate]
mortality at 2500 ppm (Megoura viciae): ≥ 75%
mortality at 2500 ppm (Myzus persicae): ≥ 75%
mortality at 2500 ppm (Aedes aegypti): ≥ 75%

O=C(NCC(F)(F)F)NN=c1ccccn1Cc1ccc(Cl)nc1 [IB.1-3]
mortality in comparison with untreated controls (Nilaparvata lugens): at least 75%

CNC(=O)NN=c1ccccn1Cc1ccc(Cl)nc1 (mixture of isomers) [IB.1-1, 1-[(E/Z)-[1-[(6-chloro-3-pyridyl)methyl]-2-pyridylidene]amino]-3-methyl-urea]
mortality at 500 ppm (Aphis craccivora): ≥ 75%
mortality at 2500 ppm (Megoura viciae): ≥ 75%
mortality at 2500 ppm (Ceratitis capitata): ≥ 75%
mortality at 2500 ppm (Myzus persicae): ≥ 75%
mortality at 2500 ppm (Aedes aegypti): ≥ 75%
mortality at 500 ppm (Nephotettix virescens): ≥ 75%
